Data taken from US7960436B2, “Substituted arylamino-1,2,3,4-tetrahydro naphthalenes and-2,3-dihydro-1H-indenes as potassium channel modulators” (Valeant Pharmaceuticals International, priority 2006, dated 2011).
Each block holds one compound with its values, some of them ahead of it.

Tested on: potassium ion channels
Assay: Rubidium (Rb+) efflux assay in NGF-differentiated PC-12 cells
Assay type: cell-based
Details: depolarization buffer with 15 mM KCl, 10 min at room temperature, read-out: EC50 (compound's concentration for 50% of maximal Rb+ efflux)
Experimental: Several typical compounds of this invention were assayed as potassium channel modulators by measuring rhubidium release.
Methods: PC-12 cells were grown at 37° C. and 5% CO2 in DMEM/F12 Medium supplemented with 10% horse serum, 5% fetal bovine serum, 2 mM glutamine, 100 U/ml penicillin, 100 U/ml streptomycin. They were plated in poly-D-lysine-coated 96-well cell culture microplates at a density of 40,000 cells/well and differentiated with 100 ng/ml NGF-7s for 2-5 days. For the assay, the medium was aspirated and the cells were washed once with 0.2 ml in wash buffer (25 mM HEPES, pH 7.4, 150 mM NaCl, 1 mM MgCl2, 0.8 mM NaH2PO4, 2 mM CaCl2). The cells were then loaded with 0.2 ml Rb^+ loading buffer (wash buffer plus 5.4 mM […], 5 mM glucose) and incubated at 37° C. for 2 h. Attached cells were quickly washed three times with buffer (same as Rb^+ loading buffer, but containing 5.4 mM KCl instead of RbCl) to remove extracellular Rb^+. Immediately following the wash, 0.2 ml of depolarization buffer (wash buffer plus 15 mM KCl) with or without compounds was added to the cells to activate efflux of potassium ion channels. After incubation for 10 min at room temperature, the supernatant was carefully removed and collected. Cells were lysed by the addition of 0.2 ml of lysis buffer (depolarization buffer plus 0.1% Triton X-100) and the cell lysates were also collected. If collected samples were not immediately analyzed for Rb^+ contents by atomic absorption spectroscopy (see below), they were stored at 4° C. without any negative effects on subsequent Rb^+ analysis.
The concentration of Rb^+ in the supernatants (Rb^+Sup) and cell lysates (Rb^+Lys) was quantified using an ICR8000 flame atomic absorption spectrometer (Aurora Biomed Inc., Vancouver, B.C.) under conditions defined by the manufacturer. One 0.05 ml samples were processed automatically from microtiter plates by dilution with an equal volume of Rb^+ sample analysis buffer and injection into an air-acetylene flame. The amount of Rb^+ in the sample was measured by absorption at 780 nm using a hollow cathode lamp as light source and a PMT detector. A calibration curve covering the range 0-5 mg/L Rb^+ in sample analysis buffer was generated with each set of plates. The percent Rb^+ efflux (F) was defined by F=[Rb^+Sup/(Rb^+Sup+Rb^+Lys)]×100% The effect (E) of a compound was defined by: E=[(Fc−Fb)/(Fs−Fb)]×100% where the Fc is the efflux in the presence of compound in depolarization buffer, Fb is the efflux in basal buffer, and Fs is the efflux in depolarization buffer, and. The effect (E) and compound concentration relationship was plotted to calculate an EC50 value, a compound's concentration for 50% of maximal Rb^+ efflux.

Structure (SMILES): CCOC(=O)Nc1cc2c(cc1N)C(Nc1ccc(C(F)(F)F)cc1)CCC2 (stereo not shown)
EC50: > 5000 nM

Structure (SMILES): CCOC(=O)Nc1ccc2c(c1N)CCCC2Nc1ccc(C(F)(F)F)cc1 (stereo not shown)
EC50: > 5000 nM

Structure (SMILES): CCOC(=O)Nc1ccc2c(c1N)CCC2Nc1ccc(F)cc1 (stereo not shown)
EC50: 500 to 5000 nM

More lines, now with the values ahead:

EC50: < 500 nM
Structure (SMILES): CC(C)(C)CC(=O)Nc1cc2c(cc1N)C(Nc1ccc(C(F)(F)F)cc1)CC2 (stereo not shown)

EC50: 500 to 5000 nM
Structure (SMILES): CC(C)(C)CC(=O)Nc1cc2c(cc1N)C(Nc1ccc(F)cc1)CC2 (stereo not shown)

EC50: < 500 nM
Structure (SMILES): Nc1cc2c(cc1NC(=O)CCC1CCCC1)CCC2Nc1ccc(C(F)(F)F)cc1 (stereo not shown)

EC50: < 500 nM
Structure (SMILES): Nc1cc2c(cc1NC(=O)CCC1CCCC1)CCC2Nc1ccc(F)cc1 (stereo not shown)
